From patent publication US20240279236A1, “COMPOUNDS AND METHODS OF TREATING TUBERCULOSIS” (Fimbrion Therapeutics, Inc., priority 2021, published 2024) come the findings set out here.

As usually defined, the IC50 is the midpoint of a concentration-inhibition curve. Higher therefore signals lower potency.

The subject of the experiment is WT Mtb Erdman strain. As to the kind of experiment: Microplate Alamar Blue Assay (MABA), Mtb growth inhibition. To be noted: Mycobacterium tuberculosis, ERDMAN, 168 h, Middlebrook 7H9 media, 7 days at 37° C. in 5% CO2. Type of experiment: cell-based, Mycobacterium tuberculosis. For orientation: Resazurin is reduced to fluorescent resorufin, in cell work by metabolically active cells.

In turn, `CSc1nc(NCCCc2ccc(-c3ccc(OC(F)(F)F)cc3)cc2)c2nc(C)sc2n1` [Example 292, 2-methyl-5-(methylthio)-N-(3-(4′-(trifluoromethoxy)-[1,1′-biphenyl]-4-yl)propyl)thiazolo [5,4-d]pyrimidin-7-amine] returned an IC50 of 16 nM.
The result for `Cc1cc2c(NCCCc3ccc(-c4cccnc4)cc3)nc(C(F)(F)F)nc2s1` [Example 293, 6-methyl-N-(3-(4-(pyridin-3-yl)phenyl)propyl)-2-(trifluoromethyl) thieno [2,3-d]pyrimidin-4-amine] reads 2500 nM; that for `Cc1nc2c(NCCCc3ccc(-c4ccc(OC(F)(F)F)cc4)cc3)nc(-c3ccoc3)nc2s1` [Example 294, 5-(furan-3-yl)-2-methyl-N-(3-(4′-(trifluoromethoxy)-[1,1′-biphenyl]-4-yl)propyl)thiazolo [5,4-d]pyrimidin-7-amine], 89 nM.
`Cc1cc2c(NCCCc3ccc(-c4ccc(OC(F)(F)F)cc4)cc3)nc(-c3ccc(F)cc3)nc2s1` [Example 295, 2-(4-fluorophenyl)-6-methyl-N-(3-(4′-(trifluoromethoxy)-[1,1′-biphenyl]-4-yl)propyl)thieno [2,3-d]pyrimidin-4-amine] displayed a concentration for half-maximal inhibition (IC50) of 400 nM.
In the case of `FC(F)(F)Oc1ccc(-c2ccc(CCCNc3nc(C(F)(F)F)nc4sccc34)cc2)cc1` [Example 296, N-(3-(4′-(trifluoromethoxy)-[1,1′-biphenyl]-4-yl)propyl)-2-(trifluoromethyl) thieno[2,3-d]pyrimidin-4-amine] it was 270 nM; in that of `CCc1nc(NCCCc2ccc(-c3ccc(C(F)(F)F)nc3)cc2)c2cc(C)sc2n1` [Example 297, 2-ethyl-6-methyl-N-(3-(4-(6-(trifluoromethyl)pyridin-3-yl)phenyl)propyl) thieno[2,3-d]pyrimidin-4-amine], 34 nM.
In the case of `Cc1cc2c(NCCCc3ccc(-c4ccc(Cl)c(Cl)c4)cc3)nc(-c3ccoc3)nc2s1` [Example 298, N-(3-(3′,4′-dichloro-[1,1′-biphenyl]-4-yl)propyl)-2-(furan-3-yl)-6-methylthieno[2,3-d]pyrimidin-4-amine] it was 26 nM; in that of `CCc1nc(NCCCc2ccc(-c3ccc(N(C)C)cc3)cc2)c2cc(C)sc2n1` [Example 299, N-(3-(4′-(dimethylamino)-[1,1′-biphenyl]-4-yl)propyl)-2-ethyl-6-methylthieno[2,3-d]pyrimidin-4-amine], 26 nM; in that of `CCc1nc(NCCCc2ccc(-c3ccc(Cl)cc3Cl)cc2)c2cc(C)sc2n1` [Example 300, N-(3-(2′,4′-dichloro-[1,1′-biphenyl]-4-yl)propyl)-2-ethyl-6-methylthieno[2,3-d]pyrimidin-4-amine], 76 nM.
In the case of `CCc1nc(NCCCc2ccc(-c3ccc(Cl)c(F)c3)cc2)c2cc(C)sc2n1` [Example 301, N-(3-(4′-chloro-3′-fluoro-[1,1′-biphenyl]-4-yl)propyl)-2-ethyl-6-methylthieno[2,3-d]pyrimidin-4-amine] it was 45 nM; in that of `CCc1nc(NCCCc2ccc(-c3ccc(C4CC4)cc3)cc2)c2cc(C)sc2n1` [Example 302, N-(3-(4′-cyclopropyl-[1,1′-biphenyl]-4-yl)propyl)-2-ethyl-6-methylthieno[2,3-d]pyrimidin-4-amine], 27 nM.
The compound `CCc1nc(NCCCc2ccc(-c3ccc(C#N)cc3)cc2)c2cc(C)sc2n1` [Example 303, 4′-(3-((2-ethyl-6-methylthieno[2,3-d]pyrimidin-4-yl)amino)propyl)-[1,1′-biphenyl]-4-carbonitrile] yielded an IC50 of 37 nM.
The result for `CCc1nc(NCCCc2ccc(-c3ccc(F)cc3)cc2)c2cc(C)sc2n1` [Example 304, 2-ethyl-N-(3-(4′-fluoro-[1,1′-biphenyl]-4-yl)propyl)-6-methylthieno[2,3-d]pyrimidin-4-amine] reads 40 nM.
In the case of `CCc1nc(NCCCc2ccc(-c3ccc(OC4CC4)cc3)cc2)c2cc(C)sc2n1` [Example 305, N-(3-(4′-cyclopropoxy-[1,1′-biphenyl]-4-yl)propyl)-2-ethyl-6-methylthieno[2,3-d]pyrimidin-4-amine] it was 57 nM.
Consider `CCc1nc(NCCCc2ccc(-c3ccc(OC(F)(F)F)c(F)c3)cc2)c2cc(C)sc2n1` [Example 306, 2-ethyl-N-(3-(3′-fluoro-4′-(trifluoromethoxy)-[1,1′-biphenyl]-4-yl)propyl)-6-methylthieno[2,3-d]pyrimidin-4-amine], for which half-maximal inhibition (IC50) required 47 nM.
The result for `CCc1nc(NCCCc2ccc(-c3c(Cl)cccc3Cl)cc2)c2cc(C)sc2n1` [Example 307, N-(3-(2′,6′-dichloro-[1,1′-biphenyl]-4-yl)propyl)-2-ethyl-6-methylthieno[2,3-d]pyrimidin-4-amine] reads 830 nM; that for `CCc1nc(NCCCc2ccc(-c3cc(Cl)cc(Cl)c3)cc2)c2cc(C)sc2n1` [Example 308, N-(3-(3′,5′-dichloro-[1,1′-biphenyl]-4-yl)propyl)-2-ethyl-6-methylthieno[2,3-d]pyrimidin-4-amine], 240 nM; that for `CCc1nc(NCCCc2ccc(-c3ccc(F)c(Cl)c3)cc2)c2cc(C)sc2n1` [Example 309, N-(3-(3′-chloro-4′-fluoro-[1,1′-biphenyl]-4-yl)propyl)-2-ethyl-6-methylthieno[2,3-d]pyrimidin-4-amine], 100 nM.
The result for `CCc1nc(NCCCc2ccc(-c3cc(Cl)ccc3Cl)cc2)c2cc(C)sc2n1` [Example 310, N-(3-(2′,5′-dichloro-[1,1′-biphenyl]-4-yl)propyl)-2-ethyl-6-methylthieno[2,3-d]pyrimidin-4-amine] reads 380 nM; that for `CCc1nc(NCCCc2ccc(-c3ccc(C(F)(F)F)cc3)cc2)c2cc(C)sc2n1` [Example 311, 2-ethyl-6-methyl-N-(3-(4′-(trifluoromethyl)-[1,1′-biphenyl]-4-yl)propyl)thieno [2,3-d]pyrimidin-4-amine], 27 nM; that for `Cc1cc2c(NCCCCc3ccc(-c4ccc(OC(F)(F)F)cc4)cc3)nc(-c3ccoc3)nc2s1` [Example 312, 2-(furan-3-yl)-6-methyl-N-(4-(4′-(trifluoromethoxy)-[1,1′-biphenyl]-4-yl)butyl)thieno [2,3-d]pyrimidin-4-amine], 380 nM.
The result for `Cc1cc2c(NCCCc3ccc(-c4ccc(OC(F)(F)F)cc4)cc3F)nc(-c3ccoc3)nc2s1` [Example 313, N-(3-(3-fluoro-(trifluoromethoxy)-[1,1′-biphenyl]-4-′-yl)propyl)-2-(furan-3-yl)-6-methylthieno[2,3-d]pyrimidin-4-amine] reads 50 nM.
As for `Cc1cc2c(NCCCc3ccc(-c4ccc([N+](=O)[O-])cc4)cc3)nc(N(C)C)nc2s1` [Example 314, N2,N2,6-trimethyl-N4-(3-(4′-nitro-[1,1′-biphenyl]-4-yl)propyl)thieno [2,3-d]pyrimidine-2,4-diamine], the IC50 came to 3 nM.
The result for `Cc1cc2c(NCCCc3ccc(-c4ccc(OC(F)(F)F)cc4)c(F)c3)nc(-c3ccoc3)nc2s1` [Example 315, N-(3-(2-fluoro-4′-(trifluoromethoxy)-[1,1′-biphenyl]-4-yl)propyl)-2-(furan-3-yl)-6-methylthieno[2,3-d]pyrimidin-4-amine] reads 12 nM; that for `COC(=O)c1ccc(-c2ccc(CCCNc3nc(-c4ccoc4)nc4sc(C)cc34)cc2)cc1` [Example 318, methyl 4′-(3-((2-(furan-3-yl)-6-methylthieno[2,3-d]pyrimidin-4-yl)amino)propyl)-[1,1′-biphenyl]-4-carboxylate], 20 nM.
Regarding `Cc1cc2c(NCCCc3ccc(-c4ccc(F)cc4)cc3)nc(-c3ccoc3)nc2s1` [Example 322, N-(3-(4′-fluoro-[1,1′-biphenyl]-4-yl)propyl)-2-(furan-3-yl)-6-methylthieno[2,3-d]pyrimidin-4-amine], the IC50 was 6 nM.
In the case of `Cc1cc2c(NC/C=C/c3ccc(-c4ccc(OC(F)(F)F)cc4)cc3)nc(-c3ccoc3)nc2s1` [Example 323, 2-(furan-3-yl)-6-methyl-N-[(2E)-3-[4′-(trifluoromethoxy)-[1,1′-biphenyl]-4-yl]prop-2-en-1-yl]thieno[2,3-d]pyrimidin-4-amine] it was 37 nM.
Compound `Cc1cc2c(NCCCc3ccc(-c4ccnc(C(F)(F)F)c4)cc3)nc(-c3ccoc3)nc2s1` [Example 324, 2-(furan-3-yl)-6-methyl-N-(3-(4-[2-(trifluoromethyl)pyridin-4-yl]phenyl)propyl) thieno[2,3-d]pyrimidin-4-amine] registered an IC50 of 160 nM. This IC50 lies about 4.3-fold higher than the previous one.
The result for `Cc1cc2c(NCCCc3ccc(-c4ccc(N(C)C)cc4)cc3)nc(-c3ccoc3)nc2s1` [Example 325, N-(3-[4′-(dimethylamino)-[1,1′-biphenyl]-4-yl]propyl)-2-(furan-3-yl)-6-methylthieno[2,3-d]pyrimidin-4-amine] reads 10 nM; that for `Cc1cc2c(NCCCc3ccc(-c4ccc(OC5CC5)cc4)cc3)nc(-c3ccoc3)nc2s1` [Example 326, N-(3-(4′-cyclopropoxy-[1,1′-biphenyl]-4-yl)propyl)-2-(furan-3-yl)-6-methylthieno[2,3-d]pyrimidin-4-amine], 15 nM.
The result for `Cc1cc2c(NCCCc3ccc(-c4cccc(C#N)c4)cc3)nc(-c3ccoc3)nc2s1` [Example 327, 4′-(3-([2-(furan-3-yl)-6-methylthieno[2,3-d]pyrimidin-4-yl]amino)propyl)-[1,1′-biphenyl]-3-carbonitrile] reads 100 nM.
The result for `Cc1cc2c(NCCCc3ccc(-c4ccc([N+](=O)[O-])cc4)cc3)nc(-c3ccoc3)nc2s1` [Example 328, 2-(furan-3-yl)-6-methyl-N-(3-(4′-nitro-[1,1′-biphenyl]-4-yl)propyl)thieno [2,3-d]pyrimidin-4-amine] reads under 1 nM; that for `Cc1cc2c(NCCCc3ccc(-c4ccc5c(ccn5C)c4)cc3)nc(-c3ccoc3)nc2s1` [Example 329, 2-(furan-3-yl)-6-methyl-N-(3-[4-(1-methyl-1H-indol-5-yl)phenyl]propyl) thieno[2,3-d]pyrimidin-4-amine], 34 nM; that for `Cc1cc2c(NCCCc3ccc(-c4cccs4)cc3)nc(-c3ccoc3)nc2s1` [Example 330, 2-(furan-3-yl)-6-methyl-N-(3-[4-(thiophen-2-yl)phenyl]propyl) thieno[2,3-d]pyrimidin-4-amine], under 5 nM.
